Experiments:
Format in all cases: in vivo
[1] = system: barnyardgrass (Echinochloa crus-galli); experiment: Test B postemergence
Procedure, shortened: (§1)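 Seeds were planted and sprayed preemergence with test chemical in a non-phytotoxic solvent mixture containing surfactant; postemergence plants (2 to 18 cm, 1- to 4-leaf stage) received the same formulation. Greenhouse hold 13 to 15 days, then visual rating versus untreated controls on a 0–100 scale (0 no effect, 100 complete control).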

[2] = system: wheat (Triticum aestivum); experiment: Test B postemergence; conditions: Rate 125 g/ha, scale 0 to 100, 0 no effect, 100 complete control
Procedure, shortened: as §1

wild oat (Avena fatua) = experiment: Test B postemergence; conditions: Rate 125 g/ha, scale 0 to 100, 0 no effect, 100 complete control
Procedure, shortened: as §1

corn (Zea mays) [3] = experiment: Test B postemergence
Procedure, shortened: as §1

Sunflower = experiment: Test C preemergence; conditions: Rate 250 g/ha, scale 0 to 100, 0 no effect, 100 complete control
Nightshade [4] = experiment: Test C preemergence; conditions: Rate 500 g/ha, visual evaluation after 12 to 14 days
[5] = system: barnyardgrass (Echinochloa crus-galli); experiment: Test C flooded paddy test; conditions: for Barnyardgrass plant response rating: Flooded Paddy, scale 0 to 100, 0 no effect, 100 complete control
Procedure, shortened: (§2)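 Rice and three paddy weeds were grown to the 2-leaf stage under flooded conditions, then treated and kept in a greenhouse for 12–14 days. Response was rated visually against untreated controls on a 0–100 scale, where 100 is complete control.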

[6] = system: duck salad (Heteranthera limosa); experiment: Test C flooded paddy test; conditions: for Ducksalad plant response rating: Flooded Paddy, scale 0 to 100, 0 no effect, 100 complete control
Procedure, shortened: as §2

rice (Oryza saliva) = experiment: Test C flooded paddy test; conditions: for Rice plant response rating: Flooded Paddy, scale 0 to 100, 0 no effect, 100 complete control
Procedure, shortened: as §2

[7] = system: smallflower flatsedge (Cyperus difformis); experiment: Test C flooded paddy test; conditions: for Flatsedge plant response rating: Flooded Paddy, scale 0 to 100, 0 no effect, 100 complete control
Procedure, shortened: as §2

soybean (Glycine max) = experiment: Test C preemergence
Procedure, shortened: (§3)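 Pre- and postemergence treatments used a non-phytotoxic solvent/surfactant formulation; post-treated plants measured 2 to 18 cm. Greenhouse hold 12–14 d; % control estimated visually relative to controls.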

[8] = system: johnsongrass (Sorghum halepense); experiment: Test C preemergence
Procedure, shortened: as §3

[9] = system: yellow nutsedge (Cyperus esculentus); experiment: Test C preemergence
Procedure, shortened: as §3

[10] = system: woolly cupgrass (Eriochloa villosa); experiment: Test C preemergence
Procedure, shortened: as §3

[11] = system: lambsquarters (Chenopodium album); experiment: Test C preemergence
Procedure, shortened: as §3

corn (Zea mays) [12] = experiment: Test C preemergence
Procedure, shortened: as §3

Nightshade [13] = experiment: Test C preemergence
[14] = system: pigweed (Amaranthus retroflexus); experiment: Test C preemergence
Procedure, shortened: as §3

kochia (Kochia scoparia) = experiment: Test C preemergence
Procedure, shortened: as §3

[15] = Rate 125 g/ha, scale 0 to 100, 0 no effect, 100 complete control
[16] = Rate 500 g/ha, scale 0 to 100, 0 is no effect, 100 is complete control, 13 to 15 days
[17] = flooded paddy test, Rate 125 g/ha, scale 0 to 100 (0 no effect, 100 complete control)
[18] = flooded paddy test, Rate 62 g/ha, visually evaluated after 12 to 14 days, 0 = no effect, 100 = complete control
[19] = preemergence, Rate 62 g/ha, scale 0 to 100
[20] = preemergence, Rate 500 g/ha, visual evaluation after 12 to 14 days
[21] = preemergence, Rate 250 g/ha, scale 0 to 100, 0 no effect, 100 complete control

CCCC(C)c1ccn(C2CCN(c3cccc(OCC)c3)C2=O)n1 (centres unmarked) [Compound 129]
Plant response rating, Barnyardgrass [1, 15]: 0
Plant response rating, Barnyardgrass [1, 16]: 60
Plant response rating, Wheat [2]: 0
Plant response rating, Wild Oat (wild oat (Avena fatua)): 0
Plant response rating, Corn (corn (Zea mays) [3]; [15]): 0
Plant response rating, Corn (corn (Zea mays) [3]; [16]): 0
Plant response rating, Sunflower (Sunflower): 10
Plant response rating (0 to 100), Nightshade (Nightshade [4]): 60
Barnyardgrass plant response rating ([5]; Rate 250 g/ha): 80
Barnyardgrass plant response rating ([5]; Rate 500 g/ha): 100
Plant response rating, Barnyardgrass [5, 17]: 50
Plant response rating (scale 0 to 100), Barnyardgrass [5, 18]: 30
Ducksalad plant response rating ([6]; Rate 250 g/ha): 90
Ducksalad plant response rating ([6]; Rate 500 g/ha): 90
Plant response rating, Ducksalad [6, 17]: 30
Plant response rating (scale 0 to 100), Ducksalad [6, 18]: 20
Rice plant response rating (rice (Oryza saliva); Rate 250 g/ha): 0
Rice plant response rating (rice (Oryza saliva); Rate 500 g/ha): 35
Plant response rating, Rice (rice (Oryza saliva); [17]): 0
Plant response rating (scale 0 to 100), Rice (rice (Oryza saliva); [18]): 0
Flatsedge plant response rating ([7]; Rate 250 g/ha): 90
Flatsedge plant response rating ([7]; Rate 500 g/ha): 90
Plant response rating, Flatsedge [7, 17]: 80
Plant response rating (scale 0 to 100), Flatsedge [7, 18]: 70
Plant response rating, Soybean (soybean (Glycine max); [15]): 20
Plant response rating, Soybean (soybean (Glycine max); [19]): 10
Plant response rating (0 to 100), Soybean (soybean (Glycine max); [20]): 20
Plant response rating, Soybean (soybean (Glycine max); [21]): 20
Plant response rating, Johnsongrass [8, 15]: 70
Plant response rating, Johnsongrass [8, 19]: 20
Plant response rating (0 to 100), Johnsongrass [8, 20]: 100
Plant response rating, Johnsongrass [8, 21]: 100
Plant response rating, Nutsedge [9, 15]: 0
Plant response rating, Nutsedge [9, 19]: 0
Plant response rating (0 to 100), Nutsedge [9, 20]: 90
Plant response rating, Nutsedge [9, 21]: 50
Plant response rating, Cupgrass, Woolly [10, 15]: 100
Plant response rating, Cupgrass, Woolly [10, 19]: 90
Plant response rating (0 to 100), Cupgrass, Woolly [10, 20]: 100
Plant response rating, Cupgrass, Woolly [10, 21]: 100
Plant response rating, Lambsquarters [11, 15]: 100
Plant response rating, Lambsquarters [11, 19]: 100
Plant response rating (0 to 100), Lambsquarters [11, 20]: 100
Plant response rating, Lambsquarters [11, 21]: 100
Plant response rating, Corn (corn (Zea mays) [12]; [15]): 20
Plant response rating, Corn (corn (Zea mays) [12]; [19]): 0
Plant response rating (0 to 100), Corn (corn (Zea mays) [12]; [20]): 30
Plant response rating, Corn (corn (Zea mays) [12]; [21]): 30
Plant response rating, Nightshade (Nightshade [13]; Rate 62 g/ha, scale 0 to 100): 0
Plant response rating, Nightshade (Nightshade [13]; [15]): 0
Plant response rating, Nightshade (Nightshade [13]; Rate 250 g/ha, scale 0 to 100, 0 no effect, 100 complete control): 10
Plant response rating, Pigweed [14, 15]: 100
Plant response rating, Pigweed [14, 19]: 20
Plant response rating (0 to 100), Pigweed [14, 20]: 100
Plant response rating, Pigweed [14, 21]: 60
Plant response rating, Kochia (kochia (Kochia scoparia); [15]): 100
Plant response rating, Kochia (kochia (Kochia scoparia); [19]): 0
Plant response rating (0 to 100), Kochia (kochia (Kochia scoparia); [20]): 100
Plant response rating, Kochia (kochia (Kochia scoparia); [21]): 100
